{"source": "patent US10851110B2", "about": "“Heterocyclic inhibitors of PTPN11” (priority 2016, dated 2020)", "test_system": "BT474 human breast carcinomas cell line", "assay": "In Vivo Tumor Models: BT474 xenograft", "details": "BT474 (HER2+) xenograft in CB-17/SCID mice, 100 mg/kg once per day oral gavage, 5 days on/2 days off, 4 weeks", "from_the_text": "Xenografts were initiated with BT474 human breast carcinomas cell line and maintained by serial subcutaneous transplantation in CB-17/SCID mice (Charles River). On the day of tumor implant, each test mouse received a 1 mm^3 BT474 fragment implanted subcutaneously in the right flank, and tumor growth was monitored as the average size approached the target range of 100 to 150 mm3. About three weeks post-implantation, the animals were randomized and grouped based on tumor volume and mouse body weight. […] Tumors were measured in two dimensions using calipers, and volume was calculated using the formula: Tumor Volume (mm^3)=w^2×l/2."}
{"compound": "CC1(N)CCN(c2cnc3c(-c4cccc(Cl)c4Cl)n[nH]c3n2)CC1", "note": "[Example 1, 1-(3-(2,3-dichlorophenyl)-1H-pyrazolo[3,4-b]pyrazin-6-yl)-4-methylpiperidin-4-amine]", "values": [{"measurement": "tolerability (body weight)", "result": "tolerated dose"}, {"measurement": "tumor growth", "result": "significant suppression of tumor growth"}]}
